PubChem BioAssay AID180 (DTP/NCI, 2004)
Several values for one entry are separate records, joined by “and”; a condition that tells them apart may be missing. Identical values can stand only once.

Test system: BDF1 mice, Adenocarcinoma 755 s.c., tumor weight T/C
Assay: NCI In Vivo Anticancer Drug Screen. Data for tumor model Adenocarcinoma 755 (subcutaneous) in B6D2F1 (BDF1) mice
Settings: endpoint: mean tumor weight, higher = larger tumour
Outline: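 Tumor-bearing mice receive test compound while controls get vehicle alone. Antitumor effect is scored from survival or tumor dimensions as a T/C quotient.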

[1] = dose: 6.0 mg/kg/injection, schedule: Q01DX011 (ip), vehicle: methylcellulose (MC)
[2] = dose: 25.0 mg/kg/injection, schedule: Q01DX011 (ip), vehicle: methylcellulose (MC)
[3] = dose: 25.0 mg/kg/injection, schedule: Q01DX011 (ip), vehicle: carboxymethylcellulose (CMC)
[4] = dose: 50.0 mg/kg/injection, schedule: Q01DX011 (ip), vehicle: carboxymethylcellulose (CMC)
[5] = dose: 30.0 mg/kg/injection, schedule: Q01DX011 (ip), vehicle: methylcellulose (MC)
[6] = dose: 60.0 mg/kg/injection, schedule: Q01DX011 (ip), vehicle: methylcellulose (MC)
[7] = dose: 31.0 mg/kg/injection, schedule: Q01DX011 (ip), vehicle: methylcellulose (MC)
[8] = dose: 62.0 mg/kg/injection, schedule: Q01DX011 (ip), vehicle: methylcellulose (MC)
[9] = dose: 125.0 mg/kg/injection, schedule: Q01DX011 (ip), vehicle: methylcellulose (MC)
[10] = dose: 250.0 mg/kg/injection, schedule: Q01DX011 (ip), vehicle: methylcellulose (MC)
[11] = dose: 30.0 mg/kg/injection, schedule: Q01DX011 (ip), vehicle: carboxymethylcellulose (CMC)
[12] = dose: 60.0 mg/kg/injection, schedule: Q01DX011 (ip), vehicle: carboxymethylcellulose (CMC)
[13] = dose: 120.0 mg/kg/injection, schedule: Q01DX011 (ip), vehicle: carboxymethylcellulose (CMC)
[14] = dose: 240.0 mg/kg/injection, schedule: Q01DX011 (ip), vehicle: carboxymethylcellulose (CMC)
[15] = dose: 7.5 mg/kg/injection, schedule: Q01DX011 (ip), vehicle: saline
[16] = dose: 113.0 mg/kg/injection, schedule: Q01DX011 (ip), vehicle: methylcellulose (MC)
[17] = dose: 225.0 mg/kg/injection, schedule: Q01DX011 (ip), vehicle: methylcellulose (MC)

## CCN(CC)C(=O)CSc1ncnc2nc[nH]c12
[1]
  T/C: 91 % of control
[2]
  T/C: 43 % of control
dose: 31.25 mg/kg/injection, schedule: Q01DX011 (ip), vehicle: methylcellulose (MC)
  T/C: 6 % of control
dose: 62.5 mg/kg/injection, schedule: Q01DX011 (ip), vehicle: methylcellulose (MC)
  T/C: 4 % of control

## CNc1ncnc2c1ncn2C1CC(O)C(CO)O1 (stereo not drawn)
dose: 60.0 mg/kg/injection, schedule: Q01DX011 (ip), vehicle: saline
  T/C: 92 % of control
dose: 120.0 mg/kg/injection, schedule: Q01DX011 (ip), vehicle: saline
  T/C: 94 % of control

## COS(C)(=O)=O
[3]
  T/C: 113 % of control
[4]
  T/C: 88 % of control

## CC1CCC(n2cnc3c(=S)nc[nH]c32)O1 (stereo not drawn)
dose: 1.8 mg/kg/injection, schedule: Q01DX011 (ip), vehicle: carboxymethylcellulose (CMC)
  T/C: 86 % of control
dose: 3.7 mg/kg/injection, schedule: Q01DX011 (ip), vehicle: carboxymethylcellulose (CMC)
  T/C: 12 % of control
dose: 7.5 mg/kg/injection, schedule: Q01DX011 (ip), vehicle: carboxymethylcellulose (CMC)
  T/C: 3 % of control
dose: 15.0 mg/kg/injection, schedule: Q01DX011 (ip), vehicle: carboxymethylcellulose (CMC)
  T/C: 3 % of control

## C/C(=N\NC(=O)c1ccncc1)c1ccc(Cl)cc1Cl
[5]
  T/C: 41 % of control
[6]
  T/C: 58 % of control

## C[C@@H]1CC2=CC(=O)C=C[C@]2(C)[C@H]2CC[C@@]3(C)[C@@H](CC[C@]3(C)O)[C@H]12
dose: 400.0 mg/kg/injection, schedule: Q01DX011 (sc), vehicle: steriod suspending solution
  T/C: 16 % of control
dose: 800.0 mg/kg/injection, schedule: Q01DX011 (sc), vehicle: steriod suspending solution
  T/C: 33 % of control

## Cc1cc(Nc2ccccc2Br)nc(N)n1
dose: 15.0 mg/kg/injection, schedule: Q01DX011 (ip), vehicle: methylcellulose (MC)
  T/C: 65 % of control
[7]
  T/C: 69 % of control
[8]
  T/C: 112 % of control
[9]
  T/C: 78 % of control
[10]
  T/C: 76 % of control

## COc1cc(N=Nc2cccc(S(=O)(=O)O)c2)ccc1NC(=O)c1ccc(C(=O)Nc2ccc(N=Nc3cccc(S(=O)(=O)O)c3)cc2OC)cc1
[11]
  T/C: 102 % of control
[12]
  T/C: 105 % of control
[13]
  T/C: 82 % of control
[14]
  T/C: 57 % of control

## Cn1cnc2c(F)ncnc21
dose: 8.5 mg/kg/injection, schedule: Q01DX011 (ip), vehicle: carboxymethylcellulose (CMC)
  T/C: 106 % of control
dose: 17.0 mg/kg/injection, schedule: Q01DX011 (ip), vehicle: carboxymethylcellulose (CMC)
  T/C: 96 % of control
dose: 34.0 mg/kg/injection, schedule: Q01DX011 (ip), vehicle: carboxymethylcellulose (CMC)
  T/C: 85 % of control
dose: 68.0 mg/kg/injection, schedule: Q01DX011 (ip), vehicle: carboxymethylcellulose (CMC)
  T/C: 84 % of control

## Fc1ccccc1CSc1ncnc2c1ncn2C1CCCCO1 (stereo not drawn)
[5]
  T/C: 21 % of control

## CC(C)COC(=O)C1(N)CCCC1
[3]
  T/C: 98 % of control
[4]
  T/C: 33 % of control
dose: 100.0 mg/kg/injection, schedule: Q01DX011 (ip), vehicle: carboxymethylcellulose (CMC)
  T/C: 12 % of control

## Nc1nc(Cl)c2[nH]cnc2n1
[7]
  T/C: 60 % of control
[8]
  T/C: 13 % of control
[9]
  T/C: 4 % of control

## CS(=O)(=O)OCCCCCOS(C)(=O)=O
dose: 4.5 mg/kg/injection, schedule: Q01DX011 (ip), vehicle: carboxymethylcellulose (CMC)
  T/C: 110 % of control
dose: 9.0 mg/kg/injection, schedule: Q01DX011 (ip), vehicle: carboxymethylcellulose (CMC)
  T/C: 86 % of control
dose: 18.0 mg/kg/injection, schedule: Q01DX011 (ip), vehicle: carboxymethylcellulose (CMC)
  T/C: 67 % of control
[2]
  T/C: 11 % of control
dose: 37.0 mg/kg/injection, schedule: Q01DX011 (ip), vehicle: carboxymethylcellulose (CMC)
  T/C: 3 % of control

## CSc1ncnc2c1ncn2C1OC(CO)C(O)C1O (stereo not drawn)
dose: 1.9 mg/kg/injection, schedule: Q01DX011 (ip), vehicle: saline
  T/C: 102 % of control and 87 % of control
dose: 3.0 mg/kg/injection, schedule: Q01DX011 (ip), vehicle: saline
  T/C: 90 % of control
dose: 6.0 mg/kg/injection, schedule: Q01DX011 (ip), vehicle: saline
  T/C: 112 % of control
[15]
  T/C: 100 % of control and 120 % of control
dose: 12.5 mg/kg/injection, schedule: Q01DX011 (ip), vehicle: saline
  T/C: 93 % of control

## CCN(CC)Cc1nc2c(c(=O)n(C)c(=O)n2C)n1C
[5]
  T/C: 93 % of control
[6]
  T/C: 54 % of control
dose: 120.0 mg/kg/injection, schedule: Q01DX011 (ip), vehicle: methylcellulose (MC)
  T/C: 40 % of control

## O=P1(N(CCF)CCF)NCCCO1 (stereo not drawn)
dose: 3.75 mg/kg/injection, schedule: Q01DX011 (ip), vehicle: saline
  T/C: 62 % of control
[15]
  T/C: 79 % of control
dose: 15.0 mg/kg/injection, schedule: Q01DX011 (ip), vehicle: saline
  T/C: 26 % of control

## CC(=O)O[C@]1(C(C)=O)CC[C@H]2[C@@H]3C[C@H](C)C4=CC(=O)C=C[C@]4(C)[C@@]3(F)[C@@H](O)C[C@@]21C
dose: 4.5 mg/kg/injection, schedule: Q01DX011 (sc), vehicle: steriod suspending solution
  T/C: 95 % of control
dose: 9.0 mg/kg/injection, schedule: Q01DX011 (sc), vehicle: steriod suspending solution
  T/C: 60 % of control
dose: 15.0 mg/kg/injection, schedule: Q01DX011 (sc), vehicle: steriod suspending solution
  T/C: 54 % of control
dose: 18.0 mg/kg/injection, schedule: Q01DX011 (sc), vehicle: steriod suspending solution
  T/C: 34 % of control
dose: 30.0 mg/kg/injection, schedule: Q01DX011 (sc), vehicle: steriod suspending solution
  T/C: 34 % of control
dose: 60.0 mg/kg/injection, schedule: Q01DX011 (sc), vehicle: steriod suspending solution
  T/C: 19 % of control
dose: 120.0 mg/kg/injection, schedule: Q01DX011 (sc), vehicle: steriod suspending solution
  T/C: 8 % of control
dose: 136.0 mg/kg/injection, schedule: Q01DX011 (sc), vehicle: steriod suspending solution
  T/C: 17 % of control

## Nc1nc(SCc2ccc(Br)cc2)c2ncn(C3OC(CO)C(O)C3O)c2n1 (stereo not drawn)
[1]
  T/C: 80 % of control
[2]
  T/C: 32 % of control
[5]
  T/C: 41 % of control
dose: 75.0 mg/kg/injection, schedule: Q01DX011 (ip), vehicle: methylcellulose (MC)
  T/C: 5 % of control

## CCc1c(Cl)nc(N)nc1Nc1ccc(Br)cc1
[7]
  T/C: 118 % of control
[8]
  T/C: 105 % of control
[9]
  T/C: 106 % of control
[10]
  T/C: 116 % of control

## C[C@@H]1CN(C(=O)CCBr)[C@@H](C)CN1C(=O)CCBr
dose: 113.0 mg/kg/injection, schedule: Q01DX011 (ip), vehicle: carboxymethylcellulose (CMC)
  T/C: 50 % of control
dose: 225.0 mg/kg/injection, schedule: Q01DX011 (ip), vehicle: carboxymethylcellulose (CMC)
  T/C: 48 % of control
dose: 450.0 mg/kg/injection, schedule: Q01DX011 (ip), vehicle: carboxymethylcellulose (CMC)
  T/C: 57 % of control

## CC(=O)OCC1OC(n2cnc3c(=O)[nH]c(N)nc32)CC1OC(C)=O (stereo not drawn)
[11]
  T/C: 115 % of control
[12]
  T/C: 95 % of control
[13]
  T/C: 94 % of control
[14]
  T/C: 115 % of control

## O=C(CCBr)NCCCCCNC(=O)CCBr
dose: 56.0 mg/kg/injection, schedule: Q01DX011 (ip), vehicle: methylcellulose (MC)
  T/C: 86 % of control
[16]
  T/C: 71 % of control
[17]
  T/C: 78 % of control
dose: 450.0 mg/kg/injection, schedule: Q01DX011 (ip), vehicle: methylcellulose (MC)
  T/C: 47 % of control

## CC(COS(C)(=O)=O)C(=O)N1CCN(C(=O)C(C)COS(C)(=O)=O)CC1 (stereo not drawn)
dose: 28.0 mg/kg/injection, schedule: Q01DX011 (ip), vehicle: methylcellulose (MC)
  T/C: 69 % of control
dose: 57.0 mg/kg/injection, schedule: Q01DX011 (ip), vehicle: methylcellulose (MC)
  T/C: 74 % of control
[16]
  T/C: 73 % of control
[17]
  T/C: 69 % of control

## CCCCn1cnc2c(SCc3ccc(F)cc3)nc(N)nc21
dose: 3.1 mg/kg/injection, schedule: Q01DX011 (ip), vehicle: methylcellulose (MC)
  T/C: 59 % of control
dose: 6.25 mg/kg/injection, schedule: Q01DX011 (ip), vehicle: methylcellulose (MC)
  T/C: 47 % of control
dose: 12.5 mg/kg/injection, schedule: Q01DX011 (ip), vehicle: methylcellulose (MC)
  T/C: 22 % of control
[2]
  T/C: 10 % of control and 14 % of control
dose: 50.0 mg/kg/injection, schedule: Q01DX011 (ip), vehicle: methylcellulose (MC)
  T/C: 2 % of control
